Test results published in the kinase profiling compilation of Christmann-Franck et al. (2016).

Key:
Assay in all cases: KINOMEscan competition binding
Conditions in all cases: compound 10.0 µM
MARK3 (human) = MARK3 (human) (UniProt P27448)
STK24 (human) = STK24 (human) (UniProt Q9Y6E0)
[1] = system: PIK3CA (human), P42336 [Q546K]
IGF1R (human) = IGF1R (human) (UniProt P08069)
FGFR1 (human) = FGFR1 (human) (UniProt P11362)
MAP4K1 (human) = MAP4K1 (human) (UniProt Q92918)
YSK4 (human) = YSK4 (human) (UniProt Q56UN5)
MLTK (human) = MLTK (human) (UniProt Q9NYL2)
TYRO3 (human) = TYRO3 (human) (UniProt Q06418)
DCLK1 (human) = DCLK1 (human) (UniProt O15075)
STK17B (human) = STK17B (human) (UniProt O94768)
RIPK2 (human) = RIPK2 (human) (UniProt O43353)
RIPK2 (human), sequence (O43353 whole entry, looked up): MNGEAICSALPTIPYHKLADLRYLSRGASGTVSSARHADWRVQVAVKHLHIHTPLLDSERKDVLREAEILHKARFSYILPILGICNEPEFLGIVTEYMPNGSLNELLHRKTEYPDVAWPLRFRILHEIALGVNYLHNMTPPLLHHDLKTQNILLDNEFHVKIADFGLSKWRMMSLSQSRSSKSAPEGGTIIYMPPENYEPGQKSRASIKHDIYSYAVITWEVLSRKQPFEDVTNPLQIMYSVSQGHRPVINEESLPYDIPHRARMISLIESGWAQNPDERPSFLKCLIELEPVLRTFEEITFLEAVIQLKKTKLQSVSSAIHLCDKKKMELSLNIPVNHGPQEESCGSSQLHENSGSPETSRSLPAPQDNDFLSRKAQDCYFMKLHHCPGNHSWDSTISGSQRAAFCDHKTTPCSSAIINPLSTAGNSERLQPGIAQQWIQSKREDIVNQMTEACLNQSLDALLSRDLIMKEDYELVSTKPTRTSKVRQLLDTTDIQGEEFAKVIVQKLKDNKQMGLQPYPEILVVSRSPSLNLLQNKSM

PIK3CB (human) = PIK3CB (human) (UniProt P42338)
SIK3 (human) = SIK3 (human) (UniProt Q9Y2K2)
SIK3 (human), sequence (Q9Y2K2 whole entry, looked up): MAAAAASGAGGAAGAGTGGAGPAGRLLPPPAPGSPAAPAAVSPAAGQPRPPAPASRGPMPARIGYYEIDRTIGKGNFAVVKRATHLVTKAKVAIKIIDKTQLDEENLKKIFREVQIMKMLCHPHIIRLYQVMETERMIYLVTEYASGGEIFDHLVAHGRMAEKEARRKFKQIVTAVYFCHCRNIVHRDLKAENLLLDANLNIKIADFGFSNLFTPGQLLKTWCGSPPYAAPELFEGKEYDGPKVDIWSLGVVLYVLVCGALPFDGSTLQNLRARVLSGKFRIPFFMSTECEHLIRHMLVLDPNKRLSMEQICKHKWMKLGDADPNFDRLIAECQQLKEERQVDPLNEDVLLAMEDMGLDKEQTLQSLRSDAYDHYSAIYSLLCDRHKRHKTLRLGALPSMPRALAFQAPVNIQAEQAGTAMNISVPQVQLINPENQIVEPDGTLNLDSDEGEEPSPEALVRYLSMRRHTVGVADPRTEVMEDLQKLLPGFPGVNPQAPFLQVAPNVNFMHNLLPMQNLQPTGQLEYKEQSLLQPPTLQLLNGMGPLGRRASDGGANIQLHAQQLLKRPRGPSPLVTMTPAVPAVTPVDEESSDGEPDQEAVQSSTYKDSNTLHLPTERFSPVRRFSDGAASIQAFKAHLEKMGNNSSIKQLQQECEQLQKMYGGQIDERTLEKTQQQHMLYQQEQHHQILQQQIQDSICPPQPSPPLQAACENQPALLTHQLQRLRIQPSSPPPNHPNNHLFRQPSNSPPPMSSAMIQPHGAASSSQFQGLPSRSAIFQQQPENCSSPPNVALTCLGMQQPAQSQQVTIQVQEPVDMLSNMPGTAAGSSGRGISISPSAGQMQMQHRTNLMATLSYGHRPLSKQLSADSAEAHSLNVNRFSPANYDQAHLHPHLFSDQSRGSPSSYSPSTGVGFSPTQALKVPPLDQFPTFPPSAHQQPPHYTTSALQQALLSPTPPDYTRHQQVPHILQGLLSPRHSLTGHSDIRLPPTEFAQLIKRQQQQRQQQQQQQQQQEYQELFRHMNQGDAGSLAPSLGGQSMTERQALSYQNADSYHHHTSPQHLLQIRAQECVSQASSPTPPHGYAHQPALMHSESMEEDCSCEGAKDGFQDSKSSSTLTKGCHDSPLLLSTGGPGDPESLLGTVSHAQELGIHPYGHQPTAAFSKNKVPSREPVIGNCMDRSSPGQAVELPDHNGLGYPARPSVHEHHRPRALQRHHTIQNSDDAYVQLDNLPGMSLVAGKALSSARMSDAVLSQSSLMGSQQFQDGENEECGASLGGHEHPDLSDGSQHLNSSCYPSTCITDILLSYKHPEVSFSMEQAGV

RIOK2 (human) = RIOK2 (human) (UniProt Q9BVS4)
RPS6KA4 KD1 (human) = RPS6KA4 KD1 (human) (UniProt O75676)
MAP3K1 (human) = MAP3K1 (human) (UniProt Q13233)
ACVR2B (human) = ACVR2B (human) (UniProt Q13705)
ACVR1 (human) = ACVR1 (human) (UniProt Q04771)
PIK3C2B (human) = PIK3C2B (human) (UniProt O00750)
PIK3C2B (human), sequence (O00750 whole entry, looked up): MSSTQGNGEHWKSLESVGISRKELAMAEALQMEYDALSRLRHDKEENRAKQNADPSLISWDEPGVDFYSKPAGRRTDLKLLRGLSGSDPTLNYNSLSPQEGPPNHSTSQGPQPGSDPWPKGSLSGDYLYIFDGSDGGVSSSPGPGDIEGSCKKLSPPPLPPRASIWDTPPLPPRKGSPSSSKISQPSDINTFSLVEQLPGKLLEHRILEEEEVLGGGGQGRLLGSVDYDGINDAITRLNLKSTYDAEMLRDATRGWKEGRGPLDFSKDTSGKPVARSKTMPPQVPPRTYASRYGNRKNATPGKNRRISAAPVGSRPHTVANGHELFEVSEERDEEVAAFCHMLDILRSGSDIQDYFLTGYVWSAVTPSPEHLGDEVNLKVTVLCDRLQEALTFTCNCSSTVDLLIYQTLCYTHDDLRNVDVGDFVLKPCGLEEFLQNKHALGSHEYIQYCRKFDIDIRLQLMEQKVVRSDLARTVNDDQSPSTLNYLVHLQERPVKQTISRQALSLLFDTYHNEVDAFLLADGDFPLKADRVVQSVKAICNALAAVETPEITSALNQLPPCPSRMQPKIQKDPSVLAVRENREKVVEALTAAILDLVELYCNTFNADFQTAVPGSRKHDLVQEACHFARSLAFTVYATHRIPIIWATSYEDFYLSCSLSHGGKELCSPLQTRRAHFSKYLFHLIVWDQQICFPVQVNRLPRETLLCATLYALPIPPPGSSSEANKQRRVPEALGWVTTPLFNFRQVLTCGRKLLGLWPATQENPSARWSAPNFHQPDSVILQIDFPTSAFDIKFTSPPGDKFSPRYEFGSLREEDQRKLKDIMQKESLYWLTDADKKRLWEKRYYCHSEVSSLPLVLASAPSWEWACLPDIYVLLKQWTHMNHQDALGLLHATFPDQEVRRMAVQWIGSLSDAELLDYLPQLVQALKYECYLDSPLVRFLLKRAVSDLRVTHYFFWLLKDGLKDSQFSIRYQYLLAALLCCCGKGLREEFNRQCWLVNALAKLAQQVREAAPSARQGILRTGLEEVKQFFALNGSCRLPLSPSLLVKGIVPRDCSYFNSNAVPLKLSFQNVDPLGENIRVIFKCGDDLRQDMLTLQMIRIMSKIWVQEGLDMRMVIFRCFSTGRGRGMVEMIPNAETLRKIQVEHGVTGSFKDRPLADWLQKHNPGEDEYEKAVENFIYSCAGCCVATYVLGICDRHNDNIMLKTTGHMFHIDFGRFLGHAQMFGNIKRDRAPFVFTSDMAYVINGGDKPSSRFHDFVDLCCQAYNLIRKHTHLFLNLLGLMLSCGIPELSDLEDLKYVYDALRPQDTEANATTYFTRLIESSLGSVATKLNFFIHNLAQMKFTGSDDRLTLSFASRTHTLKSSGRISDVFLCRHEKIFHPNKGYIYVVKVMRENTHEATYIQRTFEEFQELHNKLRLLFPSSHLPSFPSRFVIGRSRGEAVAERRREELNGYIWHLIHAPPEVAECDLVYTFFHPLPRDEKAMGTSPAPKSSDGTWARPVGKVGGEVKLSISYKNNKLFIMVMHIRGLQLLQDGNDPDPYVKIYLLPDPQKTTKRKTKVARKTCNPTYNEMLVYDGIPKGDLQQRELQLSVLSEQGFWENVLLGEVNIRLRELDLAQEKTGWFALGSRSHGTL

PAK4 (human) = PAK4 (human) (UniProt O96013)
MYLK3 (human) = MYLK3 (human) (UniProt Q32MK0)
STK4 (human) = STK4 (human) (UniProt Q13043)
PLK4 (human) = PLK4 (human) (UniProt O00444)
DMPK (human) = DMPK (human) (UniProt Q09013)
RAF1 (human) = RAF1 (human) (UniProt P04049)
EPHA6 (human) = EPHA6 (human) (UniProt Q9UF33)
CDK8 (human) = CDK8 (human) (UniProt P49336)
NEK7 (human) = NEK7 (human) (UniProt Q8TDX7)
NEK7 (human), sequence (Q8TDX7 whole entry, looked up): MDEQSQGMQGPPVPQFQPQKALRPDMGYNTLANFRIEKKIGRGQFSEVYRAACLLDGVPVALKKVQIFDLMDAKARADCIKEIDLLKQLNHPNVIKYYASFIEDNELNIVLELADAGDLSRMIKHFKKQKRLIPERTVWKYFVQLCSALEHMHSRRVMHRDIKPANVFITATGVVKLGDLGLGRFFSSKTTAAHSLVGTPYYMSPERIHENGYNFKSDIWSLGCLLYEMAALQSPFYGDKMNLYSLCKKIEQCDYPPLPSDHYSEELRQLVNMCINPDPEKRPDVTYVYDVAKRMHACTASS

CASK (human) = CASK (human) (UniProt O14936)
HIPK2 (human) = HIPK2 (human) (UniProt Q9H2X6)
[2] = molecular target: JAK2 JH1 catalytic (human) (UniProt O60674)
PAK6 (human) = PAK6 (human) (UniProt Q9NQU5)
TXK (human) = TXK (human) (UniProt P42681)
TXK (human), sequence (P42681 whole entry, looked up): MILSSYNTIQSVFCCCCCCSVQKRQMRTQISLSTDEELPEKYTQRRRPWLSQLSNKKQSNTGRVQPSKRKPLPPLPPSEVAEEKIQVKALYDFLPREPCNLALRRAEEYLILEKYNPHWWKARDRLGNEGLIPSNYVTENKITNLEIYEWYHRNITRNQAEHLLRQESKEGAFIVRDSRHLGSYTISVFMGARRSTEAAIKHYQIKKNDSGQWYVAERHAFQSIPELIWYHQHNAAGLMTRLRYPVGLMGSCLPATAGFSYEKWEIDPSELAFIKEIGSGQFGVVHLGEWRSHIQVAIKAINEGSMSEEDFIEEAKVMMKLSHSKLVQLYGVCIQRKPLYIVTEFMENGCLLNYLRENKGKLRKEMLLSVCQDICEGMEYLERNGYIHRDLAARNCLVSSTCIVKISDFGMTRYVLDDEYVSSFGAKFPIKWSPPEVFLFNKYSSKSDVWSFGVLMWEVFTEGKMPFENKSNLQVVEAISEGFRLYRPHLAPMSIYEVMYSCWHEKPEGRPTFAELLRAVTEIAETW

EPHA4 (human) = EPHA4 (human) (UniProt P54764)
MAP2K6 (human) = MAP2K6 (human) (UniProt P52564)
[3] = system: PIK3CA (human), P42336 [E545A]
FER (human) = FER (human) (UniProt P16591)
[4] = system: KIT (human), P10721 [D816V]
[5] = system: PIK3CA (human), P42336 [H1047Y]

MARK3 (human), sequence (P27448 whole entry, looked up): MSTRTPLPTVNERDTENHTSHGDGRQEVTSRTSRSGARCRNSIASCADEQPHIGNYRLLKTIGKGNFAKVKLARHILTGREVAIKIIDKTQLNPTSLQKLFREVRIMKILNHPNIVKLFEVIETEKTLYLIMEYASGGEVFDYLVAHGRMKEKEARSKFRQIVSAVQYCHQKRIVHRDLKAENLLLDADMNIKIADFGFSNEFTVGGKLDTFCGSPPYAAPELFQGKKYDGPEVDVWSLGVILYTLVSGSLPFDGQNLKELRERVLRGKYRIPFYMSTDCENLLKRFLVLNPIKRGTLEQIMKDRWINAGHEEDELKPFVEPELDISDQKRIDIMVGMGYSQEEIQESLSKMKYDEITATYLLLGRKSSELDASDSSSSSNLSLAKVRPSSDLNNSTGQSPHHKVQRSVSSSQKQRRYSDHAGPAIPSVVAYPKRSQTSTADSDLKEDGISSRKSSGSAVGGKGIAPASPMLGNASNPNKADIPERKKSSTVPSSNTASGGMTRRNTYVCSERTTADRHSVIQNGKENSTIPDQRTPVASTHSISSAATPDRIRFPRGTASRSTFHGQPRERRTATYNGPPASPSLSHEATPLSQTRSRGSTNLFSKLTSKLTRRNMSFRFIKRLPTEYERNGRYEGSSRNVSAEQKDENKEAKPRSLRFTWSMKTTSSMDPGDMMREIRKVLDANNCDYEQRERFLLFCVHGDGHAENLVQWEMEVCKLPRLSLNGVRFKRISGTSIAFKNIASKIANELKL

CCC(=O)N1CCN(c2ccc(-n3c(=O)ccc4cnc5ccc(-c6cnc7ccccc7c6)cc5c43)cc2C(F)(F)F)CC1
kinase still bound, per cent of control (MARK3 (human)): 100%
kinase still bound, per cent of control (STK24 (human)): 100%
kinase still bound, per cent of control [1]: 6.8%
kinase still bound, per cent of control (IGF1R (human)): 94%
kinase still bound, per cent of control (FGFR1 (human)): 96%
kinase still bound, per cent of control (MAP4K1 (human)): 30%
kinase still bound, per cent of control (YSK4 (human)): 38%
kinase still bound, per cent of control (MLTK (human)): 22%
kinase still bound, per cent of control (TYRO3 (human)): 31%
kinase still bound, per cent of control (DCLK1 (human)): 100%
kinase still bound, per cent of control (STK17B (human)): 67%
kinase still bound, per cent of control (RIPK2 (human)): 44%
kinase still bound, per cent of control (PIK3CB (human)): 65%
kinase still bound, per cent of control (SIK3 (human)): 89%
kinase still bound, per cent of control (RIOK2 (human)): 24%
kinase still bound, per cent of control (RPS6KA4 KD1 (human)): 100%
kinase still bound, per cent of control (MAP3K1 (human)): 92%
kinase still bound, per cent of control (ACVR2B (human)): 42%
kinase still bound, per cent of control (ACVR1 (human)): 28%
kinase still bound, per cent of control (PIK3C2B (human)): 25%
kinase still bound, per cent of control (PAK4 (human)): 100%
kinase still bound, per cent of control (MYLK3 (human)): 94%
kinase still bound, per cent of control (STK4 (human)): 7.6%
kinase still bound, per cent of control (PLK4 (human)): 100%
kinase still bound, per cent of control (DMPK (human)): 77%
kinase still bound, per cent of control (RAF1 (human)): 48%
kinase still bound, per cent of control (EPHA6 (human)): 75%
kinase still bound, per cent of control (CDK8 (human)): 4.6%
kinase still bound, per cent of control (NEK7 (human)): 90%
kinase still bound, per cent of control (CASK (human)): 100%
kinase still bound, per cent of control (HIPK2 (human)): 58%
kinase still bound, per cent of control [2]: 65%
kinase still bound, per cent of control (PAK6 (human)): 77%
kinase still bound, per cent of control (TXK (human)): 54%
kinase still bound, per cent of control (EPHA4 (human)): 90%
kinase still bound, per cent of control (MAP2K6 (human)): 100%
kinase still bound, per cent of control [3]: 1%

Cc1cc([C@@H](C)Nc2ccccc2C(=O)O)c2nc(N3CCOCC3)cc(=O)n2c1
kinase still bound, per cent of control (MARK3 (human)): 89%
kinase still bound, per cent of control (STK24 (human)): 100%
kinase still bound, per cent of control (FER (human)): 100%
kinase still bound, per cent of control (IGF1R (human)): 100%
kinase still bound, per cent of control (FGFR1 (human)): 89%
kinase still bound, per cent of control (MAP4K1 (human)): 100%
kinase still bound, per cent of control (YSK4 (human)): 100%
kinase still bound, per cent of control (MLTK (human)): 100%
kinase still bound, per cent of control (TYRO3 (human)): 100%
kinase still bound, per cent of control (DCLK1 (human)): 78%
kinase still bound, per cent of control (STK17B (human)): 100%
kinase still bound, per cent of control (RIPK2 (human)): 94%
kinase still bound, per cent of control (SIK3 (human)): 95%
kinase still bound, per cent of control (RIOK2 (human)): 54%
kinase still bound, per cent of control [4]: 81%
kinase still bound, per cent of control (RPS6KA4 KD1 (human)): 94%
kinase still bound, per cent of control (MAP3K1 (human)): 90%
kinase still bound, per cent of control (ACVR2B (human)): 100%
kinase still bound, per cent of control (ACVR1 (human)): 98%
kinase still bound, per cent of control (PIK3C2B (human)): 0.35%
kinase still bound, per cent of control (PAK4 (human)): 100%
kinase still bound, per cent of control (MYLK3 (human)): 100%
kinase still bound, per cent of control (STK4 (human)): 95%
kinase still bound, per cent of control (PLK4 (human)): 100%
kinase still bound, per cent of control (DMPK (human)): 100%
kinase still bound, per cent of control (RAF1 (human)): 100%
kinase still bound, per cent of control (EPHA6 (human)): 100%
kinase still bound, per cent of control (CDK8 (human)): 79%
kinase still bound, per cent of control (NEK7 (human)): 100%
kinase still bound, per cent of control (CASK (human)): 92%
kinase still bound, per cent of control (HIPK2 (human)): 79%
kinase still bound, per cent of control [2]: 62%
kinase still bound, per cent of control (PAK6 (human)): 93%
kinase still bound, per cent of control (TXK (human)): 90%
kinase still bound, per cent of control (EPHA4 (human)): 93%
kinase still bound, per cent of control (MAP2K6 (human)): 92%

O=C(O)c1ccc(Nc2ncc3c(n2)-c2ccc(Cl)cc2C(c2c(F)cccc2F)=NC3)cc1
kinase still bound, per cent of control (MARK3 (human)): 100%
kinase still bound, per cent of control (STK24 (human)): 76%
kinase still bound, per cent of control [1]: 14%
kinase still bound, per cent of control (FER (human)): 22%
kinase still bound, per cent of control (IGF1R (human)): 73%
kinase still bound, per cent of control (FGFR1 (human)): 14%
kinase still bound, per cent of control (MAP4K1 (human)): 71%
kinase still bound, per cent of control [5]: 27%
kinase still bound, per cent of control (YSK4 (human)): 62%
kinase still bound, per cent of control (MLTK (human)): 93%
kinase still bound, per cent of control (TYRO3 (human)): 46%
kinase still bound, per cent of control (STK17B (human)): 8.6%
kinase still bound, per cent of control (RIPK2 (human)): 97%
kinase still bound, per cent of control (PIK3CB (human)): 100%
kinase still bound, per cent of control (SIK3 (human)): 98%
kinase still bound, per cent of control (RIOK2 (human)): 99%
kinase still bound, per cent of control (RPS6KA4 KD1 (human)): 100%
kinase still bound, per cent of control (MAP3K1 (human)): 100%
kinase still bound, per cent of control (ACVR2B (human)): 100%
kinase still bound, per cent of control (ACVR1 (human)): 100%
kinase still bound, per cent of control (PIK3C2B (human)): 93%
kinase still bound, per cent of control (PAK4 (human)): 90%
kinase still bound, per cent of control (MYLK3 (human)): 100%
kinase still bound, per cent of control (STK4 (human)): 85%
kinase still bound, per cent of control (PLK4 (human)): 14%
kinase still bound, per cent of control (DMPK (human)): 79%
kinase still bound, per cent of control (EPHA6 (human)): 14%
kinase still bound, per cent of control (CDK8 (human)): 100%
kinase still bound, per cent of control (NEK7 (human)): 100%
kinase still bound, per cent of control (CASK (human)): 91%
kinase still bound, per cent of control (HIPK2 (human)): 100%
kinase still bound, per cent of control [2]: 100%
kinase still bound, per cent of control (PAK6 (human)): 79%
kinase still bound, per cent of control (TXK (human)): 46%
kinase still bound, per cent of control (EPHA4 (human)): 11%
kinase still bound, per cent of control (MAP2K6 (human)): 72%
kinase still bound, per cent of control [3]: 20%
